Results as given in patent US20220289719A1, “HETEROCYCLIC COMPOUNDS AS MNK INHIBITORS” (NANJING INNOCARE PHARMA TECH CO., LTD., priority 2017, published 2022).
Structures can show the parent of a compound that is named as a salt.

Legend:
[1] = target: T1, Human recombinant full-length MNK1 protein (Homo sapiens, UniProt Q9BUB5); assay: MNK1 inhibitory activity assay (ADP-Glo in vitro kinase assay); type: biochemical; conditions: 10 concentration points
T1 construct: Human recombinant full-length MNK1 protein; purchased Thermo PR9138A

MV-4-11 cells = assay: MV-4-11 cell proliferation inhibition assay (CellTiter-Glo luminescent cell viability); type: cell-based; conditions: Homo sapiens, MV4-11, 120 hours, CTG readout, 8 concentration points
Protocol: MV-4-11 Cell Proliferation Inhibition Assay:
The effect of the compounds of the present invention on the proliferation of MV-4-11 cells was evaluated using a luminescent cell viability assay.
The experimental methods are summarized as follows:
The cell proliferation status of MV-4-11 was detected using the CellTilter-Glo (CTG) assay kit: the luminescence signal generated in the assay is proportional to the number of viable cells in the culture medium by using a unique, stable luciferase to detect viable cell metabolism indicator ATP.
CellTilter-Glo reagent (Promega, G7572) consists of CellTilter-Glo lyophilized powder and ellTilter-Glo buffer, which can be used to dissolve the lyophilized powder into the buffer.
MV-4-11 cells (ATCC #CRL-9591, purchased from Nanjing Kezhen, item number CBP60522) were cultured in IMDM complete medium (Thermofisher, 12440053) containing 10% FBS (GBICO, 10099-141) and 100 units/ml streptomycin mixture (Thermofisher, 15140122). when the cells coverage rearched 80-90% in the culture container, dilute and plant with 0.25% trypsin (including EDTA) (Thermofisher, 25200056) in a white 384-well plate (Thermofisher, 164610), 400 cells per well (36 μl […] complete medium), then 384-well plates were incubated overnight (18-20 hours) in a 37° C., % CO2 incubator.
Compounds were solubilized to 10 mM in 100% DMSO, then sequentially diluted in 4-fold with DMSO to a minimum concentration of […], and each concentration was diluted 50-fold with FBS-free IMDM medium. If the compound IC50 value is very low, the initial concentration of the compound can be lowered. 4 μl of the diluted IMDM compound was added to each well and mixed gently by centrifugation. The GI50 (50% Growth Inhibition) of the compounds was determined in this experiment, including the T0 group before the cell proliferation (including the T0 positive and T0 negative control groups), and the T5 group after 120 hours of cell proliferation (containing the T5 positive and T5 negative control groups).). T0 represents the number of cells before cell proliferation before compound addition, including positive control: the group with the addition of cells and 0.2% DMSO was used as the positive control. The group with medium alone was used as the negative control, T0 group before the addition of compound will be used for CTG test. […] Gently shake for 5 minutes to ensure sufficient cell lysis, leave for 10 minutes to stabilize the luminescence signal, and then read the luminescence signal with EnVision (Perkin Elmer).
The inhibition of MV-4-11 cell proliferation of the compounds was calculated by the following formula: […]
The IC50 value of the compound was calculated from the 8 concentration points by XLfit (ID Business Solutions Ltd., UK) software using the following formula: […]

T1 sequence (Q9BUB5 whole entry): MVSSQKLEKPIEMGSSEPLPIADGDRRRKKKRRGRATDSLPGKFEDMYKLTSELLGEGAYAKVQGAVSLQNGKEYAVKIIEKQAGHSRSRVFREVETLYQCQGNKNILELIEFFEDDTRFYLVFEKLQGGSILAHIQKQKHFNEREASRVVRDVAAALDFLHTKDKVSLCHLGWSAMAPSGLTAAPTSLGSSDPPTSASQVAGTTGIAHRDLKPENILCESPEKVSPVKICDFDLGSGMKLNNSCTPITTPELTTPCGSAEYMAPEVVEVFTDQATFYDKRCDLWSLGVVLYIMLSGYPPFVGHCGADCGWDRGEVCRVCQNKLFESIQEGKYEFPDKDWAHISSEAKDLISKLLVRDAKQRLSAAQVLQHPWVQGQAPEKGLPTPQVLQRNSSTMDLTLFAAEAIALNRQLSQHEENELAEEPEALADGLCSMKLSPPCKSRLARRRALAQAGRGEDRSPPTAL

| SMILES | IC50 [1] | IC50 (MV-4-11 cells) |
| --- | --- | --- |
| COc1cc2[nH]ncc2cc1Nc1cc(NC(=O)C2CC2)ncn1 [Compound 4, 5-(6-Cyclopropionamidopyrimidin-4-ylamino)-6-methoxy-1H-indazole] | 1.45 nM | 301 nM |
| COc1c(Nc2cc(NC(=O)C3CC3)ncn2)ccc2c1CNC2=O [Compound 67, 5-((6-Cyclopropanamidopyrimidin-4-yl)amino)-4-methoxyisodihydroindole-1-one] | 2.7 nM | 483 nM |
| COc1c(Nc2cc(Nc3ccccn3)ncn2)ccc2c1CNC2=O [Compound 68, 5-((6-(Pyridin-2-ylamino)pyrimidin-4-yl)amino)-4-methoxyisodihydroindol-1-one] | 8.2 nM | 295 nM |
| COc1c(Nc2cc(Nc3cnccn3)ncn2)ccc2c1CNC2=O [Compound 84, 5-((6-(Pyrazin-2-ylamino)pyrimidin-4-yl)amino)-4-methoxyisodihydroindol-1-one formate] | 5 nM | 278 nM |
